Assay [1] relates to analgesic effects of morphine. As to conditions: in vivo; cited from earlier work.
A further assay concerns opiate-naive rats. As to conditions: 15 μg i.c.v.; cited from earlier work.
Assay [2] concerns morphine-dependent rats. The assay is described as follows: Naloxone-precipitated abstinence in morphine-dependent rats. The class given is in vivo, Sprague-Dawley rats.
Experimental: Each rat was stereotaxically cannulated in the third ventricle under equithesin anesthesia. Cannula placements were subsequently confirmed by injection of methylene blue dye.
Drugs for third ventricle injection were dissolved in isotonic saline.
Following the rats way infusion period, rats were randomly divided into two treatment groups of seven rats each. Each rat received a third ventricular injection of either 600 ng daY8Ra in 30 μl saline or saline alone. Twenty-eight minutes after conclusion of the above injections, all rats were challenged by 10 μg naloxone HCl in 30 μl saline i.c.v.
Each rat was subsequently observed for 20 minutes, commencing with the onset of naloxone challenge.
Another assay has as its system specific NPFF receptors. As to conditions: spinal cord membranes; cited from earlier work.
In assay [3] the test system is morphine-dependent rats. As to conditions: 2 μg i.c.v.; cited from earlier work.

We go through one molecule from patent publication US5908832A, “Peptide analog” (University of Houston - Clearlake, priority 1991, dated 1999).

As to `CC(C)C[C@H](NC(=O)[C@@H](N)Cc1ccccc1)C(=O)N[C@@H](Cc1ccccc1)C(=O)N[C@@H](CCC(N)=O)C(=O)N1CCC[C@H]1C(=O)N[C@@H](CCC(N)=O)C(=O)N[C@@H](CCCNC(=N)N)C(=O)N[C@@H](Cc1ccccc1)C(N)=O` [NPFF, Phe-Leu-Phe-Gln-Pro-Gln-Arg-Phe-amide], the “effect on analgesic effects of morphine and certain endogenous opioid peptides” value in assay [1] is on record as “potently antagonizes”. Also, the “induction of quasi-morphine-abstinence syndrome (QMAS)” value in the assay with opiate-naive rats is listed as “induces a quasi-morphine-abstinence syndrome”. For the same molecule, the “abstinence syndrome after naloxone challenge vs saline pretreatment (one-way ANOVA)” value in the assay on morphine-dependent rats [2] (600 ng i.c.v. pretreatment, 10 μg naloxone HCl i.c.v., Example III) was “no significant differences among groups”. The “abstinence signs following the peptide injection itself (total frequency, M±SEM)” value in the assay on morphine-dependent rats [2] (morphine-dependent rats, 600 ng i.c.v., observed 14 minutes from onset of injection, before naloxone) turned out to be 3.67±0.99. The “affinity of the 125I-Y8Fa binding site” value in the assay with specific NPFF receptors is reported as “high affinity”. Moreover, the “precipitation of opiate abstinence syndrome” value with morphine-dependent rats [3] is listed as “precipitates opiate abstinence syndrome”.
